The source of these data is ChEMBL document CHEMBL5154795, “Exploring the structure-activity relationships of diphenylurea as an antibacterial scaffold active against methicillin- and vancomycin-resistant Staphylococcus aureus” (Eur J Med Chem, 2022).

Values after ≈ are worked out from the molar mass of the structure shown.

Data set [1] has as its system Staphylococcus aureus. Briefly: Antibacterial activity against methicillin-resistant Staphylococcus aureus USA300 incubated for 18 to 20 hrs by broth microdilution method. The following applies: time 18-20 hrs. The format is functional.
Data set [2] concerns Staphylococcus aureus. As to the kind of experiment: Antibacterial activity against methicillin-resistant Staphylococcus aureus NRS 123 (USA400) incubated for 18 to 20 hrs by broth microdilution method. The format is functional. The conditions noted are these: time 18-20 hrs. For orientation: Dilution methods test growth across graded concentrations, often in twofold steps.

For data set [3], the system named is Staphylococcus aureus. Briefly: Antibacterial activity against methicillin-resistant Staphylococcus aureus NRS 385 (USA500) incubated for 18 to 20 hrs by broth microdilution method. The format is functional. The following applies: time 18-20 hrs.
Data set [4] can be described thus: Cytotoxicity against human Caco-2 cells assessed as cell viability at upto 128 ug/ml incubated for 24 hrs by MTS assay relative to control. The format is toxicity, cell-based. The conditions noted are these: up to 128 µg/mL, read-out: Activity. (In general: Tetrazolium dyes change colour on reduction, which living cells bring about.)
Data set [5] deals with Staphylococcus aureus. Briefly: Antibacterial activity against methicillin-resistant Staphylococcus aureus USA400 NRS 123 assessed as time of post-antibiotic effect at 5 times MIC incubated for 2 hrs followed by compound washout and measured every single 1 hr. The format is functional.
The subject of data set [6] is Staphylococcus aureus. Briefly: Antibacterial activity against Vancomycin-resistant Staphylococcus aureus 10 incubated for 18 to 20 hrs by broth microdilution method. The format is functional. The following applies: time 18-20 hrs.
Data set [7] is described as follows: Cytotoxicity against human HaCaT cells assessed as cell viability at 64 ug/ml incubated for 24 hrs by MTS assay relative to control. The format is toxicity, cell-based. The following applies: at 64 µg/mL, read-out: Activity.
The test system of data set [8] is Staphylococcus aureus. As to the kind of experiment: Antibacterial activity against methicillin-resistant Staphylococcus aureus NRS 386 (USA700) incubated for 18 to 20 hrs by broth microdilution method. The format is functional. The conditions noted are these: time 18-20 hrs.
For data set [9], the system named is Staphylococcus aureus. As to the kind of experiment: Antibacterial activity against methicillin-sensitive Staphylococcus aureus ATCC 6538 incubated for 18 to 20 hrs by broth microdilution method. The format is functional. The following applies: time 18-20 hrs.
The test system of data set [10] is Staphylococcus aureus. Briefly: Antibacterial activity against methicillin-resistant Staphylococcus aureus NRS 119 incubated for 18 to 20 hrs by broth microdilution method. The format is functional. The following applies: time 18-20 hrs.
Data set [11] relates to Staphylococcus aureus. Briefly: Antibacterial activity against Vancomycin-resistant Staphylococcus aureus 12 incubated for 18 to 20 hrs by broth microdilution method. The format is functional. The following applies: time 18-20 hrs.
Data set [12] relates to Staphylococcus aureus. As to the kind of experiment: Antibacterial activity against methicillin-sensitive Staphylococcus aureus NRS 107 incubated for 18 to 20 hrs by broth microdilution method. The format is functional. The conditions noted are these: time 18-20 hrs.
Data set [13] relates to Staphylococcus epidermidis. As to the kind of experiment: Antibacterial activity against Staphylococcus epidermidis NRS 101 incubated for 18 to 20 hrs by broth microdilution method. The format is functional. The following applies: time 18-20 hrs.
The subject of data set [14] is Staphylococcus aureus. As to the kind of experiment: Antibacterial activity against methicillin-resistant Staphylococcus aureus NRS 384 (USA300) incubated for 18 to 20 hrs by broth microdilution method. The following applies: time 18-20 hrs. The format is functional.
Data set [15] deals with Staphylococcus aureus. Briefly: Antibacterial activity against Vancomycin-resistant Staphylococcus aureus 9 incubated for 18 to 20 hrs by broth microdilution method. The format is functional. The conditions noted are these: time 18-20 hrs.

The MIC is the lowest concentration found to suppress growth.

As to `C/C(=N\NC(=N)N)c1ccc(NC(=O)Nc2ccc(-c3ccccc3C)cc2)cc1`, in data set [1], the lowest concentration to inhibit growth (MIC) was 4 µg/mL (≈ 9.99 µM).
`C/C(=N\NC(=N)N)c1ccc(NC(=O)Nc2ccc(C=C3CCC3)cc2)cc1` showed a minimum inhibitory concentration (MIC) in data set [1] of 4 µg/mL (≈ 10.6 µM).
On to `C/C(=N\NC(=N)N)c1ccc(NC(=O)Nc2ccc(/C=C/C3CCCCC3)cc2)cc1`, for which the MIC came out at 4 µg/mL (≈ 9.56 µM) in [2]; 8 µg/mL (≈ 19.1 µM) in [3]; 8 µg/mL (≈ 19.1 µM) in data set [6]; 8 µg/mL (≈ 19.1 µM) in data set [8]; 4 µg/mL (≈ 9.56 µM) in [9]; 4 µg/mL (≈ 9.56 µM) in data set [10]. Moreover, the MIC worked out at 8 µg/mL (≈ 19.1 µM) in [11]; 4 µg/mL (≈ 9.56 µM) in [12]; 8 µg/mL (≈ 19.1 µM) in data set [13]; 2 µg/mL (≈ 4.78 µM) in data set [14]; 8 µg/mL (≈ 19.1 µM) in data set [15]. The viability at 24 h in data set [4] was found to be 100%. In addition, the Time in data set [5] stood at 6 h. The viability at 24 h, 64 ug/ml in [7] was 100%.
Regarding `C/C(=N\NC(=N)N)c1ccc(NC(=O)Nc2ccc(C3CCC3)cc2)cc1`, in data set [1], the minimum inhibitory concentration (MIC) was at least 64 µg/mL.
Consider `C/C(=N\NC(=N)N)c1ccc(NC(=O)Nc2ccc(-c3cccn3C)cc2)cc1`, for which it took 4 µg/mL (≈ 10.3 µM) to inhibit growth in data set [1] (MIC).
For the molecule `C/C(=N\NC(=N)N)c1ccc(NC(=O)Nc2ccc(-c3ccsc3)cc2)cc1`, in data set [1], 4 µg/mL (≈ 10.2 µM) was the least that counted as inhibitory (MIC).
As to `C/C(=N\NC(=N)N)c1ccc(NC(=O)Nc2ccc(-c3ccc4ccccc4c3)cc2)cc1`, the MIC in data set [1] was determined as 4 µg/mL (≈ 9.16 µM).
Molecule `C/C(=N\NC(=N)N)c1ccc(NC(=O)Nc2ccc(Cc3ccccc3)cc2)cc1` had a minimum inhibitory concentration (MIC) in data set [1] of 4 µg/mL (≈ 9.99 µM).
Molecule `C/C(=N\NC(=N)N)c1ccc(NC(=O)Nc2ccc(-c3ccoc3)cc2)cc1` registered a minimum inhibitory concentration (MIC) in data set [1] of 4 µg/mL (≈ 10.6 µM).
For the molecule `CC(=O)NC[C@H]1CN(c2ccc(N3CCOCC3)c(F)c2)C(=O)O1` [LINEZOLID], the minimal inhibitory concentration (MIC) in data set [2] amounted to 1 µg/mL (≈ 2.96 µM); in data set [6], 1 µg/mL (≈ 2.96 µM); in data set [9] it was 1 µg/mL (≈ 2.96 µM); in data set [10] it was 32 µg/mL (≈ 94.9 µM); in data set [12], 1 µg/mL (≈ 2.96 µM); in [13], 1 µg/mL (≈ 2.96 µM). Besides, the MIC in [14] and in data set [15] was 1 µg/mL (≈ 2.96 µM) throughout.
`C/C(=N\NC(=N)N)c1ccc(NC(=O)Nc2ccc(C3CC3)cc2)cc1` came in with an MIC in [1] of at least 64 µg/mL.
